Measurements: patent US20210121414A1, “METHOD FOR PRODUCING A PHARMACEUTICAL COMPOSITION OF POLYMERIC NANOPARTICLES FOR TREATING NEUROPATHIC PAIN CAUSED BY […] COMPRESSION” (UNIVERSIDAD DE SEVILLA, priority 2015, published 2021)

Legend:
[1] = tested on: Chronic constriction injury (CCI) model of mononeuropathy, mechanical hyperalgesia; experiment: Paw-pinch test of mechanical hyperalgesia in chronic constriction injury (CCI) rats after single oral administration; assay type: in vivo, Harlan Sprague-Dawley male albino rats; settings: CB13 alone
Method: Harlan Sprague-Dawley male albino rats (230-350 g), provided by the University of Cádiz Animal Experimentation Unit registered under the number ES110120000210, were used. The animals were kept under standard housing conditions (21° C., 12h light-dark cycle, “ad libitum” water and food). All experiments were carried out in accordance with the ethical guidelines for working with experimental animals proposed by the International Association for the Study of Pain […] and by the Federation of Laboratory Animal Science Associations (FELASA).
Chronic constriction injury, (CCI) was used as a model of mononeuropathy since it is a model that correlates well with the symptoms presented in the patients (spontaneous pain, mechanical and thermal allodynia and hyperalgesia.
Nociceptive behavior was evaluated in the ipsi- and contralateral paw to the ligation for sciatic nerve […]. The presence of mechanical hyperalgesia was assessed by using the paw-pinch test. Thus, gradual, increasing pressure (starting with 30 g of pressure) was exerted on the rear part of the paw using a motorized device (Analgesia Meter 57215, UGO BASILE). The cut-off pressure was set at 250 g to prevent possible damage to the paw. Two measurements were taken on each paw, 5 minutes apart, and the average value was used for statistical purposes. Mechanical hyperalgesia appeared as the pressure on the paw decreased.

[2] = cited from earlier work
[3] = tested on: established mechanical hyperalgesia; settings: cited from earlier work
[4] = tested on: central nervous system; settings: rats; cited from earlier work
[5] = cited from earlier work; remark: listed apart in the source

CCCCCOc1ccc(C(=O)c2cccc3ccccc23)c2ccccc12 [CB13, 1-naphthalenyl[4-(pentyloxy)-1-naphthalenyl]methanone]
anti-hyperalgesic effect 9 hours after administration ([1]; 9 hours): continued to be effective but to a lesser extent | anti-hyperalgesic effect after 24 hours ([1]; 24 hours): its effectiveness had disappeared | aqueous solubility [2]: 0.001-0.002 mg/m L | antihyperalgesic activity in animal models ([3]; animal models): powerful antihyperalgesic activity | effect on established mechanical hyperalgesia ([3]; oral administration and local injection into the hind paw, pig and rat): reverses the established mechanical hyperalgesia | dose with significant CNS effects relative to the oral dose required to reverse hyperalgesia [4]: 20 times | penetration into the brain ([5]; in vivo): limited penetration into the brain | absorption after oral administration ([5]; oral): not completely absorbed
